Earlier results in patent publication EP0097942A1, “Antiallergic pyrazine-bis(2-oxoglycine) compounds” (THE DOW CHEMICAL COMPANY, priority 1982, dated 1984).
Read-outs that look alike come from different tables or passages of the source.

Test system: PCA reactions
Conditions: general statement on reference drug

For O=C(O)c1cc(=O)c2c(OCC(O)COc3cccc4oc(C(=O)O)cc(=O)c34)cccc2o1 [Disodium cromoglycate], the “activity in PCA test” value (administered i.p.) is given as “active” and the “activity in PCA test” value (administered orally) is given as “not orally”.
